Experimental data published in the supplement of paper PMC5908809.

Assays:
Test in all cases: relative IC50 (inflection point of fitted viability curve, relative to fitted max inhibition); higher = less sensitive
Conditions in all cases: 72 h
NK-92 (IL-2 2.5 ng/mL) = system: NK-92 (IL-2 2.5 ng/mL)
Method: (§1)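 Drug sensitivity and resistance testing: 5 concentrations over a 10,000-fold range, 72 h at 37 °C, viability by CellTiter-Glo normalised to DMSO and benzethonium chloride controls. IC50 is the inflection point of a logistic fit (min fixed at 0, max fitted), so it is relative to the fitted maximal inhibition. Kept only where fitted max inhibition is at least 50%.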

YT (IL-2 2.5 ng/mL) = system: YT (IL-2 2.5 ng/mL)
Method: as §1

[1] = system: normal primary NK cells, pool 1 (3 donors), resting (IL-2 0 ng/mL)
Method: as §1

IMC-1 (IL-2 20 ng/mL) = system: IMC-1 (IL-2 20 ng/mL)
Method: as §1

[2] = system: normal primary NK cells, pool 1 (3 donors) (IL-2 2.5 ng/mL)
Method: as §1

NKL (IL-2 2.5 ng/mL) = system: NKL (IL-2 2.5 ng/mL)
Method: as §1

SNK-6 (IL-2 2.5 ng/mL) = system: SNK-6 (IL-2 2.5 ng/mL)
Method: as §1

[3] = system: normal primary NK cells, pool 2 (3 donors) (IL-2 2.5 ng/mL)
Method: as §1

[4] = system: normal primary NK cells, pool 3 (3 donors) (IL-2 2.5 ng/mL)
Method: as §1

DERL-7 (IL-2 2.5 ng/mL) = system: DERL-7 (IL-2 2.5 ng/mL)
Method: as §1

NK-YS (IL-2 2.5 ng/mL) = system: NK-YS (IL-2 2.5 ng/mL)
Method: as §1

KHYG-1 (IL-2 2.5 ng/mL) = system: KHYG-1 (IL-2 2.5 ng/mL)
Method: as §1

KAI3 (IL-2 2.5 ng/mL) = system: KAI3 (IL-2 2.5 ng/mL)
Method: as §1

SMILES	relative IC50 (NK-92 (IL-2 2.5 ng/mL))	relative IC50 (YT (IL-2 2.5 ng/mL))	relative IC50 [1]	relative IC50 (IMC-1 (IL-2 20 ng/mL))	relative IC50 [2]	relative IC50 (NKL (IL-2 2.5 ng/mL))	relative IC50 (SNK-6 (IL-2 2.5 ng/mL))	relative IC50 [3]	relative IC50 [4]	relative IC50 (DERL-7 (IL-2 2.5 ng/mL))	relative IC50 (NK-YS (IL-2 2.5 ng/mL))	relative IC50 (KHYG-1 (IL-2 2.5 ng/mL))	relative IC50 (KAI3 (IL-2 2.5 ng/mL))
CC(C)(C)Cn1c(N)nc2ccc(-c3[nH]c(C(C)(C)C)nc3-c3ccc(F)cc3)nc21 [Ralimetinib]	1960 nM	2220 nM	4000 nM	> 10000 nM	3570 nM	1600 nM							
COc1cc(Nc2c(C#N)cnc3cc(OCCCN4CCN(C)CC4)c(OC)cc23)c(Cl)cc1Cl [Bosutinib]	1620 nM	1950 nM	850 nM	3640 nM	1710 nM	3110 nM	3870 nM	1520 nM	3450 nM	1320 nM	2980 nM	1480 nM	1350 nM
O=C(O)c1ccc2c(c1)nc(Nc1cccc(Cl)c1)c1ccncc12 [Silmitasertib]	3900 nM	1650 nM	3780 nM		1690 nM	1850 nM	3730 nM	2230 nM	2040 nM	2270 nM	2170 nM	2010 nM	1780 nM
CN(C[C@@H]1COCCO1)S(=O)(=O)Nc1ccc2ccc3ncc(-c4cnn(C)c4)cc3c(=O)c2c1 [MK-2461]									> 10000 nM	1770 nM			
c1ccc([C@H]2CN3CCSC3=N2)cc1 [Levamisole]	> 10000 nM	> 10000 nM						> 10000 nM	> 10000 nM		> 10000 nM	> 10000 nM	> 10000 nM
CNC(=O)c1nn(C)c2c1C(C)(C)Cc1cnc(Nc3ccc(N4CCN(C)CC4)cc3)nc1-2 [Milciclib]	1190 nM	1680 nM	449 nM	3420 nM	1100 nM	1220 nM	1780 nM	775 nM	1470 nM	634 nM	1170 nM	278 nM	1230 nM
Cc1cn(-c2cc(NC(=O)c3ccc(C)c(Nc4nccc(-c5cccnc5)n4)c3)cc(C(F)(F)F)c2)cn1 [Nilotinib]						869 nM			> 10000 nM				
CO[C@@H]1[C@H](N(C)C(=O)c2ccccc2)C[C@H]2O[C@]1(C)n1c3ccccc3c3c4c(c5c6ccccc6n2c5c31)C(=O)NC4 [Midostaurin]	330 nM	431 nM	1050 nM	486 nM	188 nM	127 nM	115 nM	438 nM	594 nM	217 nM	338 nM	186 nM	175 nM
CC(=O)[C@]1(O)Cc2c(O)c3c(c(O)c2[C@@H](O[C@H]2C[C@H](N)[C@H](O)[C@H](C)O2)C1)C(=O)c1ccccc1C3=O [Idarubicin]	5.78 nM	34 nM	3.38 nM	7.71 nM	17.3 nM	1.74 nM	5.03 nM	9.51 nM	10.9 nM	6.26 nM	6.58 nM	6.52 nM	3.54 nM
CCC/C=C/C=C/C(=O)O[C@H]1/C(=C/C(=O)OC)C[C@H]2C[C@H]([C@@H](C)O)OC(=O)C[C@H](O)C[C@@H]3C[C@H](OC(C)=O)C(C)(C)[C@](O)(C[C@@H]4C/C(=C/C(=O)OC)C[C@H](/C=C/C(C)(C)[C@]1(O)O2)O4)O3 [Bryostatin 1]	0.23 nM			0.28 nM	> 100 nM	> 100 nM	1 nM	> 100 nM	> 100 nM			0.13 nM	
O=C(c1cccc(Cl)c1F)N1CCN(Cc2cccc(Nc3nccs3)n2)CC1 [MK-8745]				709 nM			204 nM	> 2500 nM	> 2500 nM	376 nM	203 nM		
CC(C)C(=O)Nc1ccc([N+](=O)[O-])c(C(F)(F)F)c1 [Flutamide]					> 10000 nM							> 10000 nM	> 10000 nM
CN(C)/N=N/c1[nH]cnc1C(N)=O [Dacarbazine]	> 10000 nM	2970 nM	> 10000 nM					> 10000 nM		> 10000 nM			
S=C(NCc1ccc2c(c1)OCO2)N1CCN(c2ncnc3c2oc2ccccc23)CC1 [Amuvatinib]	911 nM		1380 nM		1570 nM	815 nM	388 nM	1930 nM	1760 nM	521 nM	2060 nM	1330 nM	1480 nM
